Test results published in patent EP2241565A1, “Aurora kinase inhibitors compounds” (Universität Leipzig, priority 2009, dated 2010).
“Also recorded” adds a separate entry of the source.

Key:
Aurora A = target: T1, Aurora A (Homo sapiens, UniProt O14965); experiment: In vitro Aurora A kinase assay (Invitrogen Z'-lyte kinase assay kit, Ser/Thr 1 peptide); format: biochemical; conditions: for IC50: 10 µM ATP; for selectivity for Aurora A against other kinases: versus Aurora B and receptor-tyrosine kinases
T1 construct: made in house
T1 sequence (O14965 1-403): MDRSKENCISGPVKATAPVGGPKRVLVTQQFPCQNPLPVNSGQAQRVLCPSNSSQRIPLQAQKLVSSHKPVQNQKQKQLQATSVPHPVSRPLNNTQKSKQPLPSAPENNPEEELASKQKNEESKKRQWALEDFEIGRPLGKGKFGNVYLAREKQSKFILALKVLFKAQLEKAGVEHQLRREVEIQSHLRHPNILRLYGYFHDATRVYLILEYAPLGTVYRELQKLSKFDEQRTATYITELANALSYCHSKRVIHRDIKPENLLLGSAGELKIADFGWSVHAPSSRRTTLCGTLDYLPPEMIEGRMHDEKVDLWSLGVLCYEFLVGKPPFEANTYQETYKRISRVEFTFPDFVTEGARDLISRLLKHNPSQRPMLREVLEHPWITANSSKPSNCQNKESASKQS
Method: (§1) The IC50 for the different compounds was determined with Invitrogen Z'-Iyte kinase assay kit Ser/Thr 1 peptide PV3174 following the manufacturer's instructions. […] This amount was then used in subsequent assay steps.
(§2) Compounds were prepared in 384-well plates (Greiner 384-well PP 781280) at a highest concentration of 400 µM (in 4% DMSO) and then serially diluted in 2-fold steps by hand, keeping the DMSO percentage constant. 1.25 µl of compound solution was subsequently transferred 1:1 to a 384-well assay plate (Greiner 384-well ProxiPlate Plus F 6008260) for screening at a highest concentration in the final assay of 100 µM (in 1% DMSO).
In the first step, 2.5 µl of a solution containing 8 nM Aurora A (batch S74, prepared in-house at EMBL) or 40 nM Aurora B (Invitrogen PV3970) and 4 µM Ser/Thr peptide 1 (Invitrogen PV3174) was added to each well, followed by 1.25 µl of the respective ATP solution (40 µM for Aurora A, 256 µM for Aurora B). The final 5 µl reaction volume consisted of 4 nM Aurora A or 20 nM Aurora B, 2 µM Ser/Thr 1 peptide, 50 mM HEPES pH 7.5, 0.01 % BRIJ-35, 10 mM MgCl2, and 1 mM EGTA, in addition to 10 µM or 64 µM ATP (for Aurora A and Aurora B, respectively). […] The plates were then spun down at 1000 rpm for 1 min, followed by incubation at rt for 1 h. In the second step, 2.5 µl of Development solution (Development A reagent diluted 1:2048 in development buffer) was added to each well, followed again by centrifugation at 1000 rpm for 1 min and subsequent incubation at rt for 1 h. In the final step, the reaction in each well was stopped by the addition of 2.5 µl Stop reagent, followed by a brief centrifugation step and immediate readout (PerkinElmer EnVision HTS; ex. 405 nm, coumarin em. 450 nm, fluorescein em. 535 nm).
Percentage phosphorylation was calculated using 0% and 100% phosphorylation controls. The former wells contained 1.25 µl DMSO (4%), 1.25 µl buffer (as above), and 2.5 µl of a 4 µM Ser/Thr 1 peptide solution (without kinase), while in the latter the peptide solution was replaced by a 4 µM solution of a supplied phosphopeptide. The action of the development reagent was assessed using protease controls (standard wells with and without development solution added in step two).
The [coumarin emission/fluorescein emission] ratio was used together with the min. and max. signals at the two wavelengths to yield percentage phosphorylation, from which inhibition was derived (according to manufacturer's instructions). Calculated inhibition values were then fitted to 11-point variable slope sigmoidal dose-response curves using GraphPad Prism software, yielding the compound IC50s.

Aurora B = target: T2, Aurora B (Homo sapiens, UniProt Q96GD4); experiment: In vitro Aurora B kinase assay (Invitrogen Z'-lyte kinase assay kit, Ser/Thr 1 peptide); format: biochemical; conditions: 64 µM ATP
T2 construct: purchased Invitrogen PV3970
Method: as §1, §2
In the first step, 2.5 µl of a solution containing 8 nM Aurora A (batch S74, prepared in-house at EMBL) or 40 nM Aurora B (Invitrogen PV3970) and 4 µM Ser/Thr peptide 1 (Invitrogen PV3174) was added to each well, followed by 1.25 µl of the respective ATP solution (40 µM for Aurora A, 256 µM for Aurora B). […] In the final step, the reaction in each well was stopped by the addition of 2.5 µl Stop reagent, followed by a brief centrifugation step and immediate readout (PerkinElmer EnVision HTS; ex. 405 nm, coumarin em. 450 nm, fluorescein em. 535 nm).
Percentage phosphorylation was calculated using 0% and 100% phosphorylation controls. […]

HeLa cells = experiment: Flow cytometry (FACS) DNA content / cell cycle profile; format: cell-based, human; conditions: 24 h; for % of cells 2<n<4 / % of cells 2n / % of cells 4n / % of cells <2n / % of cells >4n: HeLa cells; for effect on DNA content / distribution of cells in the cell cycle stages: ZM1 2 µM, (A) and (C) increasing concentrations
Method: Adherent HeLa cells were routinely passaged and maintained in D-MEM medium supplemented with 10% Fetal Bovine Serum (FBS), 1% Penicillin/Streptomycin and 2 mM L-Glutamine. The cells were cultured at 37 °C; 5% CO2. hTERT-RPE1 cells were grown in DMEM with 10% fetal bovine serum. HeLa cells constitutively expressing green fluorescent protein-conjugated Histone H2B and mRed fluorescent protein-conjugated α-tubulin were maintained in D-MEM medium supplemented with 10% Fetal Bovine Serum (FBS), 1% Penicillin/Streptomycin, 2 mM L-Glutamine and 0.5 µg/mL Puromycin and cultured at 37 °C; 5% CO2.
After treatment, FACS analysis was performed on a BD FACSCanto™ Flow Cytometer (Cat.No. 335860 BD Biosciences) using FACSDiva Software. Cells were trypsinized, washed wish PBS and fixed overnight in EtOH (-20°C). After washing with PBS, cells were stained with a propidium iodide solution (PI; 15 µg/mL)/ RNase A (30 µg/mL) for 30 min at 37 °C. RNase was added to avoid signals caused by the binding of PI to RNA.
We first examined by flow cytometry the cell cycle profiles of HeLa cells incubated in medium containing increasing concentrations of any of (A) or (C) for 24 h.

[1] = system: histone H3 phosphorylation on Ser 10; experiment: Western Blot analysis of histone H3 phosphorylation in mitotic cells; format: cell-based, human; conditions: mitotic HeLa cells synchronized with nocodazole, treated 20 h, any of the concentrations tested
Method: For Western Blot analysis of HH3 phosphorylation levels in mitosis HeLa cells were arrested with 2 mM thymidine for 18 h, released into fresh medium for 6 h, and blocked with 2 µM nocodazole for 16 h. DMSO or the different compounds were added 1 h after thymidine release. Mitotic cells were shaken off and lysed in 50 mM Tris pH 6,8- 2% SDS. Samples were sonicated and boiled. 30 µg protein extract (as determined by Bradford assay, Bio-Rad protein assay) was loaded on SDS-PAGE, transferred to a nitrocellulose membrane and blotted with anti-phospho HH3 (Upstate), anti-Aurora A and anti-tubulin antibodies (Sigma, DM1A).

T2 sequence (Q96GD4 whole entry): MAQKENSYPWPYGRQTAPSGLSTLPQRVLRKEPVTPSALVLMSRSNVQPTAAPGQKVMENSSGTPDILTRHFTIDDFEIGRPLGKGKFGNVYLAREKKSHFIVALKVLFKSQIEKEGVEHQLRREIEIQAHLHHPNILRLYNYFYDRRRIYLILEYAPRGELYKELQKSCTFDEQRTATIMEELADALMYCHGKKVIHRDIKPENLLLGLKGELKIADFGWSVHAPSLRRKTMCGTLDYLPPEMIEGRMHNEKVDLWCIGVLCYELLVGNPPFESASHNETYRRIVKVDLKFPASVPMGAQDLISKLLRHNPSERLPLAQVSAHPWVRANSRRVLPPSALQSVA

Structure (SMILES) | IC50 (Aurora A) | selectivity for Aurora A against other kinases (Aurora A) | IC50 (Aurora B) | % of cells 2<n<4 (HeLa cells; 20µM) | % of cells 2n (HeLa cells; 20µM) | % of cells 4n (HeLa cells; 20µM) | % of cells <2n (HeLa cells; 20µM) | % of cells >4n (HeLa cells; 20µM) | % of cells 2<n<4 (HeLa cells; 40µM) | % of cells 2n (HeLa cells; 40µM) | % of cells 4n (HeLa cells; 40µM) | % of cells <2n (HeLa cells; 40µM) | % of cells >4n (HeLa cells; 40µM) | % of cells 2<n<4 (HeLa cells; 100µM) | % of cells 2n (HeLa cells; 100µM) | % of cells 4n (HeLa cells; 100µM) | % of cells <2n (HeLa cells; 100µM) | % of cells >4n (HeLa cells; 100µM) | effect on DNA content / distribution of cells in the cell cycle stages (HeLa cells) | HH3-Ser10 phosphorylation [1]
CC(C)Nc1nc(-c2ccco2)nc2ccc(/C=C/C(C)(C)O)cc12 [Compound (A), (E)-4-(2-(Furan-2-yl)-4-(isopropylamino)quinazolin-6-yl)-2-methylbut-3-en-2-ol] | 1.93 µM | selective inhibition of Aurora A | 16.2 µM | 17.6% | 58.5% | 19.2% | 4.4% | 0.7% | 17.7% | 58.5% | 19.9% | 3.8% | 3.8% | 15.5% | 48.4% | 20.8% | 13.8% | 2.1% | did not alter the distribution of cells in the different cell cycle stages | no effect
CC(C)Nc1nc(-c2ccco2)nc2ccc(C#CCO)cc12 [Compound (C), 3-(2-(Furan-2-yl)-4-(isoiproipylamino)quinazolin-6-yl)prop-2-yn-l-ol] | 2.75 µM | selective inhibition of Aurora A | 3380 µM | 17.5% | 55.2% | 19.0% | 7.6% | 1.3% | 20.0% | 47.2% | 21.2% | 10.5% | 1.8% | 25.2% | 21.4% | 41.8% | 10.0% | 1.5% | increased amount of 4n DNA; also recorded: dose dependent increase in the proportion of cells with more than 2n DNA content | no effect
